The values that follow come from US20180116988A1, “METHODS OF PREVENTING AND TREATING AUTOIMMUNITY” (THE REGENTS OF THE UNIVERSITY OF COLORADO a body corporate, priority 2015, published 2018).

The target in one data set is T1, DQ8 (Homo sapiens, UniProt P01909+P01920, A209T/A45G/C70Q/D89A/E183D/E77G/F237L/G63E/H199R/I129T/K197E/L178F/L74F/L98V/N214S/Q57E/Q76R/S185I/S97I/T49S/V73L/Y58L).
T1 construct: endogenous in cells; host or cells: blood cells of DQ8-positive human T1D subjects treated with methyldopa
T1 sequence (P01920 33-261 A45G/Y58L/E77G/D89A/H199R/N214S, other chains not shown): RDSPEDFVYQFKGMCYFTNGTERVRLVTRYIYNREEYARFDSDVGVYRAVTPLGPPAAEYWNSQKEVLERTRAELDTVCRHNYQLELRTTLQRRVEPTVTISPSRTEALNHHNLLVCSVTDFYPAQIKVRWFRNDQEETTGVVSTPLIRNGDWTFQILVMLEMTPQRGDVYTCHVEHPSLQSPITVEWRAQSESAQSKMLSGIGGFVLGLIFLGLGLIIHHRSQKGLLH
Nature of the data set: DQ8-stimulated IL-2 T cell response in T1D patients treated with methyldopa (open label phase 1b dose escalation study). The class given is in vivo. The settings on record: for reduction in DQ8-stimulated IL-2 T cell response: DQ8 positive T1D subjects. The text has this: (§1) Human leukocyte antigen (HLA) alleles confer significant genetic risk for type 1 diabetes (T1D) with recent studies implicating DQ8 in its pathogenesis, and DQ8 antigen presentation can be inhibited with methyldopa in animal models. In this pilot study, the inventors evaluated methyldopa treatment in 10 DQ8 positive human subjects with T1D, ages 18-46 years (mean 27) with less than 2 years of diabetes duration (mean 3 months). This was an open label phase 1b dose escalation study.

A further data set concerns DR4. Nature of the data set: DR4 T cell response in T1D patients treated with methyldopa. As to conditions: T1D subjects treated with varying doses of methyldopa. The class given is in vivo, human.
Text: as §1

On the set-up of data set [1]: species or system human. As to conditions: in vivo.
Text: as §1

Data set [2] can be described thus: Glucose control in T1D patients treated with methyldopa over 3 months. The class given is in vivo, human.
Text: as §1

Molecules are shown by their SMILES. Like-named read-outs stand apart in the source and are kept apart here.

As to `C[C@](N)(Cc1ccc(O)c(O)c1)C(=O)O` [methyldopa, α-Methyl-3,4-dihydroxyphenylalanine], the “DQ8-stimulated IL-2 T cell response after stopping therapy” value at DQ8 (6 weeks after stopping therapy) was “returned to normal”. Besides, the results for the reduction in DQ8-stimulated IL-2 T cell response at DQ8 (at 1 week of dose escalation) and on DQ8 (at 3 weeks of dose escalation) were 32% and 39%, respectively. For the same molecule, the “DR4 T cell responses” value with DR4 is “minimally effected”. The subjects tolerating dosage in data set [1] (human) is 9/10; in data set [1], “All subjects tolerated”. In data set [1], the “serious adverse events (hypotension, DKA, or hypoglycemia)” value is recorded as “No serious adverse events”. Moreover, in data set [2], the glycemic control entry is on record as “good glycemic control”.
